Experimental data: patent US10174355B2, “Method for glycosylation of ginsenoside using a glycosyltransferase derived from panax ginseng” (KOREA ADVANCED INSTITUTE OF SCIENCE AND TECHNOLOGY, priority 2014, dated 2019)

Tests used:
PgUGT71A1 = assay: In-vitro glycosyltransferase assay of recombinant PgUGT71A1 with ginsenoside substrates and UDP-glucose; format: biochemical, Panax ginseng; conditions: for conversion by PgUGT71A1 (product formed), HPLC / conversion by PgUGT71A1 (product formed), TLC: ginsenoside 5 mM, UDP-glucose 50 mM, 35° C., 12 hours; for conversion by PgUGT71A1 (product formed), HPLC: FIG. 2 bottom; for conversion by PgUGT71A1 (product formed), TLC: FIG. 2 top; for reaction with PgUGT71A1 confirmed by thin-layer chromatography: screen of 9 ginsenosides incubated with recombinant PgUGT71A1 in the presence of UDP-glucose; for conversion by PgUGT71A1 (product formed), TLC / reaction with PgUGT71A1 confirmed by thin-layer chromatography: TLC
Description: A glycosyltransferase assay was conducted in a reaction buffer (10 mM PBS buffer, pH 7) containing the purified PgUGT71A1 (30 μg), a ginsenoside compound (5 mM) and UDP-glucose (50 mM). For this assay, 4 different types of ginsenosides, i.e., protopanaxadiol (PPD), protopanaxatriol (PPT), Rh2 and Rg3, were caused to react the enzyme of the present disclosure.
The reaction mixture was incubated at 35° C. for 12 hours and the resulting products were analyzed by thin-layer chromatography (TLC) or high-performance liquid chromatography (HPLC).
The TLC analysis was performed using a mobile phase (acetone:methanol:DDW=65:35:10 vol/vol) and a 60F254 silica gel plate (Merck, Germany). The resolved product on the TLC plate was detected by spraying 10% (vol/vol) sulfuric acid (H2SO4) and heating at 110° C. for 5 minutes.
The HPLC analysis was performed using an ODS(2) C18 column (Phenomenex, USA). The condition of gradient application of water and acetonitrile was as follows: flow rate=1 mL/min, 0 minute, 68% water and 32% acetonitrile; 8 minutes, 35% water and 65% acetonitrile; 12 minutes, 0% water and 100% acetonitrile; 20 minutes, 0% water and 100% acetonitrile; 20.1 minutes, 68% water and 32% acetonitrile; and 28 minutes, 68% water and 32% acetonitrile.
The ginsenosides were detected by monitoring at a wavelength of 203 nm using a UV detector (Agilent, USA).
First, the recombinant PgUGT of Example 1, PgUGT71A1, was incubated with 9 different types of ginsenosides (PPD, Rh2, Rg3, C—K, F2, Rd, PPT, F1, and Rh1) in the presence of UDP-glucose.
In order to confirm the result again, 4 different types of ginsenosides (PPD, PPT, Rh2, and Rg3) were incubated with PgUGT71A1, and the products converted by the recombinant PgUGT71A1 were analyzed by TLC. The result is shown at the top of FIG. 2. The result was confirmed by comparing the locations of the migrating spots with those of PPD, PPT, Rh2, Rg3, C—K, F2, Rd, and F1 used as standard samples.

PgUGT71A1 expression = assay: Expression of PgUGT71A1 in ginseng leaves and roots after methyl jasmonate treatment (real-time PCR, NGS); format: in vivo, Panax ginseng; conditions: 200 μM MeJA sprayed onto leaves of 15-month-old ginseng daily for 5 days, sampled 6th day, FIGS. 3 and 4
Description: Total RNA was isolated from the leaf or root of 15-month-old ginseng using the Spectrum Plant Total RNA kit (Sigma-Aldrich). 200 μM methyl jasmonate (MeJA) was sprayed onto the leaves of ginseng every day for a total of 5 days and samples were collected on the 6th day. 1 μg of the total RNA was used for cDNA synthesis.
The expression level of different genes was examined by quantitative RT-PCR using the primer sets listed in Table 1, and the result was normalized to the expression level of tubulin.
RNA was extracted from the leaf and root of ginseng which had been treated and not treated with MeJA, and a cDNA library was constructed from 1 μg of the total RNA using the TruSeq RNA library kit. Following polyA-selected RNA extraction, RNA fragmentation and random hexamer-primed reverse transcription, 100 nt paired-end sequencing was conducted using Illumina HiSeq2000.
The resulting sequences were subjected to de novo transcriptome assembly using the Trinity (2011-11-26 version) program. The produced contigs (transcripts) were analyzed using Blast (version 2.2.25+). The GO database (released on 20-04-2012) and the NR database of NCBI (download date: 2012/05/07) were used. […] The expression level was expressed as fragments per kilobase of exon per million fragments mapped (FPKM) with a program released by the Trinity group using the RSEM algorithm. […]

Row | SMILES | conversion by PgUGT71A1 (product formed), HPLC (PgUGT71A1) | conversion by PgUGT71A1 (product formed), TLC (PgUGT71A1) | reaction with PgUGT71A1 confirmed by thin-layer chromatography (PgUGT71A1) | expression of PgUGT71A1 after MeJA treatment (PgUGT71A1 expression)
1 | CC(C)=CCC[C@](C)(O)[C@H]1CC[C@]2(C)[C@@H]1[C@H](O)C[C@@H]1[C@@]3(C)CC[C@H](O[C@@H]4O[C@H](CO)[C@@H](O)[C@H](O)[C@H]4O)C(C)(C)[C@@H]3CC[C@]12C [Rh2] | Rh2 to F2 | Rh2 to F2 | reaction occurred | 
2 | CC(C)=CCC[C@](C)(O)[C@H]1CC[C@]2(C)[C@@H]1[C@H](O)C[C@@H]1[C@@]3(C)CC[C@H](O[C@@H]4O[C@H](CO)[C@@H](O)[C@H](O)[C@H]4O[C@@H]4O[C@H](CO)[C@@H](O)[C@H](O)[C@H]4O)C(C)(C)[C@@H]3CC[C@]12C [Rg3] | Rg3 to Rd | Rg3 to Rd | reaction occurred | 
3 | CC(C)=CCC[C@](C)(O)[C@H]1CC[C@]2(C)[C@@H]1[C@H](O)C[C@@H]1[C@@]3(C)CC[C@H](O)C(C)(C)[C@@H]3[C@@H](O)C[C@]12C [PPT, protopanaxatriol] | PPT to F1 | PPT to F1 | reaction occurred | 
4 | CC/C=C\CC1C(=O)CCC1CC(=O)OC (stereo not shown) [MeJA, methyl jasmonate] |  |  |  | significantly enhanced
5 | CC(C)=CCCC(C)(O)[C@H]1CC[C@]2(C)[C@@H]1[C@H](O)C[C@@H]1[C@@]3(C)CC[C@H](O)C(C)(C)[C@@H]3CC[C@]12C (stereo in doubt) [PPD, protopanaxadiol] | converted PPD to C—K | converted PPD to compound K (C—K) | reaction occurred | 
